Experimental data published in patent publication US20110207697A1, “XANTHOHUMOL COMPOSITIONS AND METHODS FOR TREATING SKIN DISEASES OR DISORDERS” (Betal, LLC, priority 2008, published 2011).
≈ marks a conversion by molar mass, not a printed value.

Experiments:
[1] = test system: S. aureus (ATCC 6538P); experiment: Antimicrobial susceptibility, broth dilution (MIC/MBC); type: cell-based, Staphylococcus aureus
Description: (§1) The antibacterial effects of seven hops components against five different strains of bacteria involved in primary or secondary skin and soft tissue infections was evaluated, with broth dilution methods. […] Antimicrobial susceptibility testing was performed using a broth dilution method. Gentamicin or ampicillin was used as a control to verify the methodology. A stock solution (20 mg/ml) of the test substance (or vehicle control) was prepared in dimethyl sulfoxide. Serial dilution was done in microwell plates. Reinforced Clostridial Medium was used for P. acnes (ATCC 6919). Three hundreds […] of the test substance was added to the test tube containing P. acnes (10^5 CFU/ml) in 2.7 ml of cultures grown under anaerobic conditions. Mueller-Hinston Broth suitable for culturing S. epidermidis (ATCC 12228), K. rhizophila (formerly M. luteus) (ATCC 9341), and S. aureus (ATCC […]), and Brain Heart Infusion Broth suitable for culturing S. pyogenes (ATCC 14289) were used. A total of […] of the test substance was added to the test tube containing the other microorganisms (10^5CFU/ml) in 0.9 ml of cultures grown under controlled conditions. […] Samples from those tubes that scored positive was plated onto an agar plate and incubated under controlled conditions.

[2] = test system: S. pyogenes (ATCC 14289); experiment: as above; type: cell-based, Streptococcus pyogenes
Description: as §1

[3] = Singlet oxygen absorbance capacity (SOAC)
From the text: [table] Alpha-tocopherol (vitamin E) was used as the calibration standard, and the SOAC result is expressed as mmol VtE/g. The higher the SOAC score, the higher the singlet oxygen-quenching capacity. […] Singlet oxygen has been postulated to be a highly reactive and toxic intermediate against skin. It is known that the acne-causing bacterium P. acnes naturally produces high amounts of intracellular porphyrins, mostly coproporphyrin (Ashkenazi et al. 2003). Singlet oxygen can be generated on the skin surface from P. acnes porphyrins under sunlight and induce serious skin damage ([…] et al. 1996 Biochem. Biophys. Res. Commun. 223: 578-582). Various skin disorders progress through a singlet oxygen-dependent mechanism, including acne, atopic dermatitis, and skin aging. Both hydrophilic and lipophilic oxygen radical absorbance capacity (ORAC) assays were carried out at Brunswick Laboratory (Wareham, Mass.) based on the modified ORACfl method reported by Ou et al. (2001 J. Agric. Food Chem. 49: 4619-4626, 2002 J. Agr. Food Chem. 50: 3122-3128). Trolox, a water-soluble vitamin E analog, was used as the calibration standard. The data are expressed as mmole of Trolox equivalents per gram (mmol TE/g). The acceptable precision of the ORAC assay is a 15% relative standard deviation. Caffeic acid was used as the calibration standard. Hydroxyl radical ORAC (HOR-AC) is expressed as mmole caffeic acid equivalent per gram (mmol CAE/g). Trolox was used as the calibration standard. The peroxyl nitrite ORAC (NORAC) result is expressed as mmol TE/g. Alpha-tocopherol (vitamin E) was used as the calibration standard, and the singlet oxygen absorbance capacity (SOAC) result is expressed as mmole a-tocopherol equivalent (mmol VtE) per gram (Aubry et al. 1989). […] Radical-scavenging activity was measured by the change in absorbance at 517 nm with the DPPH result expressed as mmol TE/g. […] The FRAP result is expressed as mmol TE/g (Ou et al. 2002b). Superoxide dismutase (SOD) was used as a calibration standard; the SOD result is expressed as kilo unit SOD equivalent (kunitSODeq) per gram.

[4] = SOD antioxidant assay; details: FIG. 2 radar chart
Description: (§2) [table] […] The SOAC scores are not included in this figure; ORAC values used are the sum of lipophilic and hydrophilic results. For each assay category, scaling was made logarithmic so that the plot on the chart resembles the associated rating. […] The larger the spatial area, the higher the overall antioxidative capacity. […] Both hydrophilic and lipophilic oxygen radical absorbance capacity (ORAC) assays were carried out at Brunswick Laboratory (Wareham, Mass.) based on the modified ORACfl method reported by Ou et al. (2001 J. Agric. Food Chem. 49: 4619-4626, 2002 J. Agr. Food Chem. 50: 3122-3128). Trolox, a water-soluble vitamin E analog, was used as the calibration standard. The data are expressed as mmole of Trolox equivalents per gram (mmol TE/g). The acceptable precision of the ORAC assay is a 15% relative standard deviation. […] Hydroxyl radical ORAC (HOR-AC) is expressed as mmole caffeic acid equivalent per gram (mmol CAE/g). […] The peroxyl nitrite ORAC (NORAC) result is expressed as mmol TE/g. Alpha-tocopherol (vitamin E) was used as the calibration standard, and the singlet oxygen absorbance capacity (SOAC) result is expressed as mmole a-tocopherol equivalent (mmol VtE) per gram (Aubry et al. 1989). […] Radical-scavenging activity was measured by the change in absorbance at 517 nm with the DPPH result expressed as mmol TE/g. […] The FRAP result is expressed as mmol TE/g (Ou et al. 2002b). […]

[5] = HORAC hydroxyl radical ORAC; details: FIG. 2 radar chart
Description: as §2

MIC ([1]; 1 day): 1 µg/mL (≈ 2.82 µM)
MIC ([1]; Staphylococcus aureus, ATCC6538P): 1000 µg/mL (≈ 2820 µM)
MIC ([2]; 1 day): 1 µg/mL (≈ 2.82 µM)
SMILES: COc1cc(O)c(CC=C(C)C)c(O)c1C(=O)/C=C/c1ccc(O)cc1 [Xanthohumol (7), 3′-[3,3-dimethylallyl]-2′,4′,4-trihydroxy-6′-methoxychalcone]
MBC [1]: [100] g/mL
MBC [2]: [3] g/mL
SOAC value, times higher than that of vitamin E or Polyphenon 60 [3]: 8-15 times
SOAC (Vitamin E equivalent) ([3]; expressed as mmol VtE/g): 14.1 Vitamin E equivalent
quenching activity against superoxide (SOD), rank among hop components [4]: highest quenching activity
quenching activity against hydroxyl radical (HORAC), rank among hop components [5]: highest quenching activity
